These results are taken from publication PMC5218480 (PLoS ONE, 2017).

This test relates to MV-4-11 cells. The experiment in a line: Gene expression microarray analysis (Affymetrix PrimeView) and GSEA. In kind it is cell-based, human. Also noted: RFU PODN (11730768_x_at) / Fold change /veh PODN (11730768_x_at) / RFU LINC00158 (11744669_a_at) / Fold change /veh LINC00158 (11744669_a_at) / RFU DUSP10 (11751237_a_at) / Fold change /veh DUSP10 (11751237_a_at) / RFU ID3 (11757404_x_at) / Fold change /veh ID3 (11757404_x_at) / RFU PLEKHG5 (11737974_s_at) / Fold change /veh PLEKHG5 (11737974_s_at) / RFU LRRC4B (11730491_at) / Fold change /veh LRRC4B (11730491_at) / RFU GIMAP4 (11747438_a_at) / Fold change /veh GIMAP4 (11747438_a_at) / RFU KRT8 (11758183_x_at) / Fold change /veh KRT8 (11758183_x_at) / RFU CNN1 (11734310_a_at) / Fold change /veh CNN1 (11734310_a_at) / RFU VPS37D (11726825_at) / Fold change /veh VPS37D (11726825_at) / RFU C10orf10 (11716522_x_at) / Fold change /veh C10orf10 (11716522_x_at) / RFU KIR2DL2 /// KIR2DL4 /// KIR2DL5A /// KIR2DL5B /// KIR2DS1 /// KIR2DS2 /// KIR2DS3 /// KIR2DS4 /// KIR3DL3 /// KIR3DL3 /// KIR3DS1 (11738374_at) / Fold change /veh KIR2DL2 /// KIR2DL4 /// KIR2DL5A /// KIR2DL5B /// KIR2DS1 /// KIR2DS2 /// KIR2DS3 /// KIR2DS4 /// KIR3DL3 /// KIR3DL3 /// KIR3DS1 (11738374_at) / RFU C1QL1 (11718748_at) / Fold change /veh C1QL1 (11718748_at) / RFU TMPRSS4 (11747572_a_at) / Fold change /veh TMPRSS4 (11747572_a_at) / RFU HAMP (11756126_x_at) / Fold change /veh HAMP (11756126_x_at) / RFU RNFT2 (11725882_a_at) / Fold change /veh RNFT2 (11725882_a_at) / RFU NR4A2 (11747474_a_at) / Fold change /veh NR4A2 (11747474_a_at) / RFU ABCC12 (11746883_a_at) / Fold change /veh ABCC12 (11746883_a_at) / RFU TMEM136 (11760407_x_at) / Fold change /veh TMEM136 (11760407_x_at) / RFU CLDN22 /// WWC2 (11732394_at) / Fold change /veh CLDN22 /// WWC2 (11732394_at) / RFU HLA-DPB1 (11760878_x_at) / Fold change /veh HLA-DPB1 (11760878_x_at) / RFU SPINT1 (11716480_a_at) / Fold change /veh SPINT1 (11716480_a_at) / RFU GAP43 (11754022_s_at) / Fold change /veh GAP43 (11754022_s_at) / RFU A4GNT (11735810_at) / Fold change /veh A4GNT (11735810_at) / RFU PRB3 (11715151_x_at) / Fold change /veh PRB3 (11715151_x_at) / RFU TUBB4B (11761932_at) / Fold change /veh TUBB4B (11761932_at) / RFU CAPN14 (11732068_a_at) / Fold change /veh CAPN14 (11732068_a_at) / RFU TMCC2 (11721928_a_at) / Fold change /veh TMCC2 (11721928_a_at) / RFU IRGQ (11745062_a_at) / Fold change /veh IRGQ (11745062_a_at) / RFU FAM174B (11720279_a_at) / Fold change /veh FAM174B (11720279_a_at) / RFU TMPRSS4 (11748680_a_at) / Fold change /veh TMPRSS4 (11748680_a_at) / RFU FAM212B (11763350_a_at) / Fold change /veh FAM212B (11763350_a_at) / RFU PLEKHG5 (11743358_a_at) / Fold change /veh PLEKHG5 (11743358_a_at) / RFU ZSCAN30 (11745921_a_at) / Fold change /veh ZSCAN30 (11745921_a_at) / RFU CMKLR1 (11741424_a_at) / Fold change /veh CMKLR1 (11741424_a_at) / RFU LOC101060620 /// MAPK8IP1 (11723275_at) / Fold change /veh LOC101060620 /// MAPK8IP1 (11723275_at) / RFU SPTSSB (11747773_x_at) / Fold change /veh SPTSSB (11747773_x_at) / RFU PRSS12 (11739890_at) / Fold change /veh PRSS12 (11739890_at) / RFU BIN1 (11741810_x_at) / Fold change /veh BIN1 (11741810_x_at) / RFU WNT11 (11732464_a_at) / Fold change /veh WNT11 (11732464_a_at) / RFU C10orf10 (11716521_a_at) / Fold change /veh C10orf10 (11716521_a_at) / RFU C5orf56 (11738089_at) / Fold change /veh C5orf56 (11738089_at) / RFU CYB561 (11721691_x_at) / Fold change /veh CYB561 (11721691_x_at) / RFU ANKRD19P (11752326_a_at) / Fold change /veh ANKRD19P (11752326_a_at) / RFU OR2T12 /// OR2T33 /// OR2T8 (11738714_s_at) / Fold change /veh OR2T12 /// OR2T33 /// OR2T8 (11738714_s_at) / RFU VCAN (11748164_a_at) / Fold change /veh VCAN (11748164_a_at) / RFU JSRP1 (11732532_at) / Fold change /veh JSRP1 (11732532_at) / RFU KRTAP10-11 (11738290_x_at) / Fold change /veh KRTAP10-11 (11738290_x_at) / RFU MYO3A (11730013_a_at) / Fold change /veh MYO3A (11730013_a_at) / RFU EBF3 (11725865_a_at) / Fold change /veh EBF3 (11725865_a_at) / RFU CAMK2N1 (11719241_x_at) / Fold change /veh CAMK2N1 (11719241_x_at) / RFU C5orf56 (11738088_a_at) / Fold change /veh C5orf56 (11738088_a_at) / RFU OLFML3 (11715873_a_at) / Fold change /veh OLFML3 (11715873_a_at) / RFU LOC100653217 /// NTM (11731650_a_at) / Fold change /veh LOC100653217 /// NTM (11731650_a_at) / RFU MAPK11 (11762145_a_at) / Fold change /veh MAPK11 (11762145_a_at) / RFU FIZ1 (11724087_x_at) / Fold change /veh FIZ1 (11724087_x_at) / RFU OASL (11726364_x_at) / Fold change /veh OASL (11726364_x_at) / RFU SOX15 (11748057_x_at) / Fold change /veh SOX15 (11748057_x_at) / RFU CD79A (11719716_a_at) / Fold change /veh CD79A (11719716_a_at) / RFU HIST1H1D (11736915_at) / Fold change /veh HIST1H1D (11736915_at) / RFU CASKIN2 (11723855_a_at) / Fold change /veh CASKIN2 (11723855_a_at) / RFU LOC730098 (11760151_x_at) / Fold change /veh LOC730098 (11760151_x_at) / RFU OR4N2 (11742367_at) / Fold change /veh OR4N2 (11742367_at) / RFU PRRT2 (11749266_a_at) / Fold change /veh PRRT2 (11749266_a_at) / RFU SNX32 (11753110_a_at) / Fold change /veh SNX32 (11753110_a_at) / RFU CDHR5 (11726645_a_at) / Fold change /veh CDHR5 (11726645_a_at) / RFU RCAN1 (11760418_a_at) / Fold change /veh RCAN1 (11760418_a_at) / RFU FAM167A (11723789_a_at) / Fold change /veh FAM167A (11723789_a_at) / RFU FAM26E (11764081_at) / Fold change /veh FAM26E (11764081_at) / RFU ISYNA1 (11749810_s_at) / Fold change /veh ISYNA1 (11749810_s_at) / RFU ACY1 (11761880_at) / Fold change /veh ACY1 (11761880_at) / RFU 11764098_at / Fold change /veh 11764098_at / RFU SAMD14 (11745864_x_at) / Fold change /veh SAMD14 (11745864_x_at) / RFU NPB (11741838_a_at) / Fold change /veh NPB (11741838_a_at) / RFU TMPRSS6 (11731388_a_at) / Fold change /veh TMPRSS6 (11731388_a_at) / RFU KRTAP10-2 (11738614_at) / Fold change /veh KRTAP10-2 (11738614_at) / RFU ARHGAP8 /// PRR5-ARHGAP8 (11727945_x_at) / Fold change /veh ARHGAP8 /// PRR5-ARHGAP8 (11727945_x_at) / RFU KRTAP5-7 /// NADSYN1 (11734609_at) / Fold change /veh KRTAP5-7 /// NADSYN1 (11734609_at) / RFU RASL12 (11751679_a_at) / Fold change /veh RASL12 (11751679_a_at) / RFU CDKN2B (11736163_a_at) / Fold change /veh CDKN2B (11736163_a_at) / RFU PRF1 (11729649_at) / Fold change /veh PRF1 (11729649_at) / RFU, ZNF638 /// ZNF638-IT1 / Fold change vs veh, ZNF638 /// ZNF638-IT1 / RFU, PANK3 / Fold change vs veh, PANK3 / RFU, SH3YL1 / Fold change vs veh, SH3YL1 / RFU, ZEB2 / Fold change vs veh, ZEB2 / RFU, NRIP1 / Fold change vs veh, NRIP1 / RFU, PTTG1IP / Fold change vs veh, PTTG1IP / RFU, CAPN2 / Fold change vs veh, CAPN2 / RFU, MED14 / Fold change vs veh, MED14 / RFU, SNORA58 / Fold change vs veh, SNORA58 / RFU, C1orf63 / Fold change vs veh, C1orf63 / RFU, LRRFIP1 / Fold change vs veh, LRRFIP1 / RFU, NDUFAF7 / Fold change vs veh, NDUFAF7 / RFU, SLC12A2 / Fold change vs veh, SLC12A2 / RFU, IBTK / Fold change vs veh, IBTK / RFU, ESF1 / Fold change vs veh, ESF1 / Fold change vs veh, TMEM50B / RFU, TAOK1 / Fold change vs veh, TAOK1 / RFU, ACBD3 / Fold change vs veh, ACBD3 / RFU, TMA16 / Fold change vs veh, TMA16 / RFU, RWDD3 / Fold change vs veh, RWDD3 / RFU, BCAT1 / Fold change vs veh, BCAT1 / RFU, EDEM3 / Fold change vs veh, EDEM3 / RFU, TMEM33 / Fold change vs veh, TMEM33 / RFU, WDR75 / Fold change vs veh, WDR75 / RFU, AHCTF1 / Fold change vs veh, AHCTF1 / RFU, TFRC / Fold change vs veh, TFRC / RFU, ZDHHC17 / Fold change vs veh, ZDHHC17 / RFU, NOM1 / Fold change vs veh, NOM1 / RFU, ARL8B / Fold change vs veh, ARL8B / RFU, ZBTB11 / Fold change vs veh, ZBTB11 / RFU, TAMM41 / Fold change vs veh, TAMM41 / RFU, KIAA1704 /// LOC100996395 / Fold change vs veh, KIAA1704 /// LOC100996395 / RFU, ING1 / Fold change vs veh, ING1 / RFU, TRMT61B / Fold change vs veh, TRMT61B / RFU, FUBP3 / Fold change vs veh, FUBP3 / RFU, TP53 / Fold change vs veh, TP53 / RFU, TNKS2 / Fold change vs veh, TNKS2 / RFU, ZFP14 / Fold change vs veh, ZFP14 / RFU, ACTR2 / Fold change vs veh, ACTR2 / RFU, PPP3R1 / Fold change vs veh, PPP3R1 / RFU, PIK3R1 / Fold change vs veh, PIK3R1 / RFU, HNRNPA1 / Fold change vs veh, HNRNPA1 / RFU, RNF170 / Fold change vs veh, RNF170 / RFU, ZNF28 / Fold change vs veh, ZNF28 / RFU, RNGTT / Fold change vs veh, RNGTT / RFU, OGT / Fold change vs veh, OGT / RFU, BRD1 / Fold change vs veh, BRD1 / RFU, MARS / Fold change vs veh, MARS / RFU, ZNF655 / Fold change vs veh, ZNF655 / RFU, FAHD1 / Fold change vs veh, FAHD1 / RFU, BDP1 / Fold change vs veh, BDP1 / RFU, LRRCC1 / Fold change vs veh, LRRCC1 / RFU, ARID1A / Fold change vs veh, ARID1A / RFU, ZNF146 / Fold change vs veh, ZNF146 / RFU, ZNF330 / Fold change vs veh, ZNF330 / RFU, GPN3 / Fold change vs veh, GPN3 / RFU, C9orf123 / Fold change vs veh, C9orf123 / RFU, N4BP2L2 / Fold change vs veh, N4BP2L2 / RFU, ARFIP1 / Fold change vs veh, ARFIP1 / RFU, FAM179B / Fold change vs veh, FAM179B / RFU, BCL10 / Fold change vs veh, BCL10 / RFU, UHRF1BP1L / Fold change vs veh, UHRF1BP1L / RFU, BET1 / Fold change vs veh, BET1 / RFU, CNOT2 / Fold change vs veh, CNOT2 / RFU, ZNF268 / Fold change vs veh, ZNF268 / Fold change vs veh, ZNF507 / RFU, DGCR2 / Fold change vs veh, DGCR2 / RFU, WDSUB1 / Fold change vs veh, WDSUB1 / Fold change vs veh, HSP90B1 /// MIR3652 / RFU, ADSS / Fold change vs veh, ADSS / RFU, GK / Fold change vs veh, GK / RFU, ZNF148 / Fold change vs veh, ZNF148 / RFU, TAF9 / Fold change vs veh, TAF9 / RFU, SLC1A5 / Fold change vs veh, SLC1A5 / RFU, SLMO2 / Fold change vs veh, SLMO2 / RFU, ABCC4 / Fold change vs veh, ABCC4 / RFU, LOC101060439 /// RAP1B / Fold change vs veh, LOC101060439 /// RAP1B / RFU, RFX7 / Fold change vs veh, RFX7 / RFU, GTPBP10 / Fold change vs veh, GTPBP10 / RFU, CNEP1R1 / Fold change vs veh, CNEP1R1 / RFU, BIVM-ERCC5 /// ERCC5 / Fold change vs veh, BIVM-ERCC5 /// ERCC5 / RFU, ILF3 / Fold change vs veh, ILF3 / RFU 11762660_at / Fold change /veh 11762660_at / RFU VCAN (11757783_s_at) / Fold change /veh VCAN (11757783_s_at) / RFU DDX43 (11728927_at) / Fold change /veh DDX43 (11728927_at) / RFU KRT8 (11758188_x_at) / Fold change /veh KRT8 (11758188_x_at) / RFU NKD1 (11759106_at) / Fold change /veh NKD1 (11759106_at) / RFU SRD5A1 (11742802_a_at) / Fold change /veh SRD5A1 (11742802_a_at) / RFU TPSAB1 /// TPSB2 (11721975_s_at) / Fold change /veh TPSAB1 /// TPSB2 (11721975_s_at) / RFU GSTM3 (11746129_a_at) / Fold change /veh GSTM3 (11746129_a_at) / RFU IL23R (11737362_x_at) / Fold change /veh IL23R (11737362_x_at) / RFU TMEM51 (11727254_a_at) / Fold change /veh TMEM51 (11727254_a_at) / RFU PIWIL2 (11732686_x_at) / Fold change /veh PIWIL2 (11732686_x_at) / RFU ORM1 (11744905_x_at) / Fold change /veh ORM1 (11744905_x_at) / RFU CCDC152 (11743942_at) / Fold change /veh CCDC152 (11743942_at) / RFU ECM1 (11717891_a_at) / Fold change /veh ECM1 (11717891_a_at) / RFU IL23R (11748794_a_at) / Fold change /veh IL23R (11748794_a_at) / RFU TNFAIP8L3 (11732012_x_at) / Fold change /veh TNFAIP8L3 (11732012_x_at) / RFU MBOAT4 (11741988_at) / Fold change /veh MBOAT4 (11741988_at) / RFU 11764193_at / Fold change /veh 11764193_at / RFU TMEM53 (11763286_at) / Fold change /veh TMEM53 (11763286_at) / RFU MAGEB2 (11727129_at) / Fold change /veh MAGEB2 (11727129_at) / RFU TMEM200A (11744735_a_at) / Fold change /veh TMEM200A (11744735_a_at) / RFU CCDC152 (11751479_a_at) / Fold change /veh CCDC152 (11751479_a_at) / RFU FAM211A (11726209_a_at) / Fold change /veh FAM211A (11726209_a_at) / RFU RGS16 (11746705_a_at) / Fold change /veh RGS16 (11746705_a_at) / RFU VCAN (11755009_s_at) / Fold change /veh VCAN (11755009_s_at) / RFU RHOB (11743442_s_at) / Fold change /veh RHOB (11743442_s_at) / RFU RGS16 (11720943_a_at) / Fold change /veh RGS16 (11720943_a_at) / RFU RGS16 (11720944_at) / Fold change /veh RGS16 (11720944_at) / RFU, VPS4B / Fold change vs veh, VPS4B / RFU, CREB1 / Fold change vs veh, CREB1 / RFU, DNAJC13 / Fold change vs veh, DNAJC13 / RFU, GNAQ / Fold change vs veh, GNAQ / RFU, CDK5R1 / Fold change vs veh, CDK5R1 / RFU, ZRANB3 / Fold change vs veh, ZRANB3 / RFU, CUL4A / Fold change vs veh, CUL4A / RFU, CCNY / Fold change vs veh, CCNY / RFU, UFL1 / Fold change vs veh, UFL1 / RFU, COG3 / Fold change vs veh, COG3 / RFU, DIAPH2 / Fold change vs veh, DIAPH2 / RFU, SKA2 / Fold change vs veh, SKA2 / RFU, AFF3 / Fold change vs veh, AFF3 / RFU, LMF1 / Fold change vs veh, LMF1 / RFU, IPO11 / Fold change vs veh, IPO11 / RFU, DFFB / Fold change vs veh, DFFB / RFU, FOXP1 / Fold change vs veh, FOXP1 / RFU, CARD8 / Fold change vs veh, CARD8 / RFU, STRN3 / Fold change vs veh, STRN3 / RFU, ADK / Fold change vs veh, ADK / RFU, RASSF2 / Fold change vs veh, RASSF2 / RFU, WIPF1 / Fold change vs veh, WIPF1 / RFU, LARP1B / Fold change vs veh, LARP1B / RFU, RASA1 / Fold change vs veh, RASA1 / RFU, RB1 / Fold change vs veh, RB1 / RFU, PPFIA1 / Fold change vs veh, PPFIA1 / RFU, MAT2A / Fold change vs veh, MAT2A / RFU, CCT5 / Fold change vs veh, CCT5 / RFU, WDR92 / Fold change vs veh, WDR92 / RFU, CUX1 / Fold change vs veh, CUX1 / RFU, TTC7A / Fold change vs veh, TTC7A / RFU, TMEM135 / Fold change vs veh, TMEM135 / RFU, DEPTOR / Fold change vs veh, DEPTOR / RFU, CPM / Fold change vs veh, CPM / RFU, DNAJB6 / Fold change vs veh, DNAJB6 / RFU, CACNA2D3 / Fold change vs veh, CACNA2D3 / RFU, DTX4 / Fold change vs veh, DTX4 / RFU, TFCP2 / Fold change vs veh, TFCP2 / RFU, GMCL1 /// GMCL1P1 / Fold change vs veh, GMCL1 /// GMCL1P1 / RFU, AEBP2 / Fold change vs veh, AEBP2 / RFU, SNHG1 /// SNORD22 /// SNORD25 /// SNORD26 /// SNORD27 /// SNORD28 /// SNORD29 /// SNORD31 / Fold change vs veh, SNHG1 /// SNORD22 /// SNORD25 /// SNORD26 /// SNORD27 /// SNORD28 /// SNORD29 /// SNORD31 / Fold change (Aza/veh), C12orf56 (ProbeSet 11735607_a_at) / Fold change (ACY-1035/veh), C12orf56 (ProbeSet 11735607_a_at) / Fold change (Aza/veh), FGFR1OP (ProbeSet 11751329_s_at) / Fold change (ACY-1035/veh), FGFR1OP (ProbeSet 11751329_s_at) / Fold change (Aza/veh), VPS36 (ProbeSet 11739960_a_at) / Fold change (ACY-1035/veh), VPS36 (ProbeSet 11739960_a_at) / RFU SYPL1 (11715823_x_at) / Fold change /veh SYPL1 (11715823_x_at) / RFU IGFBP7 (11715501_s_at) / Fold change /veh IGFBP7 (11715501_s_at) / RFU REEP3 (11722064_at) / Fold change /veh REEP3 (11722064_at) / RFU IGLL1 (11728026_x_at) / Fold change /veh IGLL1 (11728026_x_at): dose or concentration left out as unconfirmed. The note with it: ProbeSet 11731583_a_at; LIST D.

Take `Nc1ncn([C@@H]2O[C@H](CO)[C@@H](O)[C@H]2O)c(=O)n1` [azacitidine]: the “Fold change vs veh, LARP1B” value is on record as 0.75.
